{"source": "patent US9603861B2", "about": "“Compositions and methods for treating hyperproliferative epidermal diseases” (DERMIPSOR LTD., priority 2005, dated 2017)", "key": {"involucrin": {"system": "involucrin", "assay": "Indirect immunofluorescence, involucrin expression", "assay_type": "cell-based, human", "description": "(§1) Effects of NA and or calcipotriol on early (keratin k10 expression) and late (involucrin expression) differentiation processes in HaCat cells were estimated by indirect immunofluorescence.\n(§2) In brief, 2×10^4 cells/ml were seeded on glass coverslips into Petri dishes with 0, 5, 10 and 20 mM NA or calcipotriol. After 72 hours of incubation, cells on the glass coverslips were washed with PBS, fixed by ice-cold mixture of methanol:acetone (1:1) and incubated at −20° C. for 10 minutes. Fixed cells were washed in PBS and incubated with blocking buffer (1% BSA in PBS) for 10 minutes, to minimize non-specific absorption of the primary antibodies to the coverslips. Thereafter, the cells were incubated for 1 hour with primary monoclonal antibodies (Keratin 10 expression was detected by antihuman mouse monoclonal antibody, at 1/50 final dilution; Involucrin expression was detected by antihuman involucrin mouse monoclonal antibody at 1/100 final dilution), at 37° C. hour in a humidified chamber. Exhaustive, PBS-washed cells were incubated with fluorophor conjugated goat anti-mouse IgG, at 1/50 final dilution, for 30 minutes at room temperature. The slides were viewed under a Zeiss microscope (Axioskop-2) equipped with epifluorescence optics and the appropriate filters to avoid cross-channel contamination. The level of keratin 10 and involucrin expression was estimated by counting the positive cells relative to the total cell number. On each slide, at least 500-1000 cells were scored."}, "HaCat cells [1]": {"system": "HaCat cells", "assay": "Growth curve and mitotic activity", "assay_type": "cell-based, human", "conditions": "10 mM NA", "description": "Growth curve and mitotic activity: 2×10^4 cells per ml were seeded in 24-well tissue culture plates and incubated without or with 10 mM NA. The cells were detached by trypsinization at different times (48 h-168 h) following passage and counted using a haemocytometer in tetra-aliquots. For estimation of mitotic activity the cells were cultured on glass coverslips into Petri dishes. After 72 h incubation with or without 10 mM NA the cells were fixed with methanol, stained with Giemsa stain and analyzed by light microscopy. Frequency of mitotic cells at different stages of mitotic cycle (pro-, meta-, ana- and telophases) was calculated. At least 1000 cells were counted for each experiment."}, "HaCat cells [2]": {"system": "HaCat cells", "assay": "Proliferation assay (MTT method), HaCat cells", "assay_type": "cell-based, human", "description": "The antiproliferative activity of calcipotriol and nicotinamide was tested in two model systems: the first a spontaneously immortalized human keratinocyte, which is referred to herein as “HaCat cells” or “HaCat keratinocytes”, and serves as a model for highly proliferative epidermis, such as, but not limited to, psoriatic epidermis (Okenfels et al, 1998), and as a model for effects of external modulators of epidermal differentiation (Paramio, et al., 1997). The second system includes rapidly proliferating human keratinocytes, which are referred to herein as “cultured human epidermal keratinocytes”, and serves as a model for detecting antiproliferative agents in the treatment of psoriasis (Nikoloff, et al., 1988). These models have been used, according to the present invention, to test the antiproliferative efficacy of agents described herein. […] The viability and/or proliferation of HaCat cells and Cultured Human Epidermal Keratinocytes, following treatment with various concentrations of calcipotriol, nicotinamide (NA) or a combination thereof was determined by the MTT assay, according manufacturer in 96-well microtiter plates."}, "KM12": {"system": "KM12", "assay": "Proliferation assay, KM12 cells", "assay_type": "cell-based", "conditions": "NA in pharmacological concentrations, dose dependent"}, "A431": {"system": "A431", "assay": "Proliferation assay, A431 cells", "assay_type": "cell-based", "conditions": "NA in pharmacological concentrations, dose dependent", "description": "(§3) Certain in vitro assays based on keratinocyte cell culture were performed to test NA and the combination of NA and calcipotriol. The experimental design has been described in PCT Patent Publication WO 01/51051, of some of the inventors of the present application."}, "PARP": {"system": "PARP", "assay": "Immunoblot analysis of PARP expression", "assay_type": "cell-based, human", "description": "Immunoblot analysis of PARP expression: immune complexes were detected by incubation with secondary anti-mouse alkaline phosphatase conjugated antibody AP124A (dilution 1:5000) followed by developing with BCIP/NBT color substrate."}, "A431 cells": {"system": "A431 cells", "assay": "Apoptosis in A431 cells", "assay_type": "cell-based"}, "HaCat cells [3]": {"system": "HaCat cells", "assay": "Cell cycle parameters by flow cytometry", "assay_type": "cell-based, human", "conditions": "NA 72 h, dose dependent", "description": "Determination of apoptosis and cell cycle parameters was performed by flow cytometry. Cells were seeded in 25 cm2 tissue culture flasks and cultured for 48 h, and then they were exposed to 5, 10 and 20 mM NA for 72 h. Flow cytometry was performed on nuclei prepared with a detergent-trypsin method and stained with propidium iodide (Vindelov et al, 1983)."}, "HaCat cells [4]": {"system": "HaCat cells", "assay": "Cornified envelope formation", "assay_type": "cell-based, human", "description": "(§4) Cornified Envelope Formation: Late differentiation processes in HaCat cells treated with NA and or calcipotriol were measured by determining the cornified cell envelope formation, according to the procedures described in Sun and Green (1976) and PCT publication WO 01/51051."}, "[5]": {"system": "human primary keratinocytes", "assay": "Proliferation assay (MTT method), human primary keratinocytes", "assay_type": "cell-based", "conditions": "NA in pharmacological concentrations, dose dependent", "description": "The antiproliferative activity of calcipotriol and nicotinamide was tested in two model systems: the first a spontaneously immortalized human keratinocyte, which is referred to herein as “HaCat cells” or “HaCat keratinocytes”, and serves as a model for highly proliferative epidermis, such as, but not limited to, psoriatic epidermis (Okenfels et al, 1998), and as a model for effects of external modulators of epidermal differentiation (Paramio, et al., 1997). The second system includes rapidly proliferating human keratinocytes, which are referred to herein as “cultured human epidermal keratinocytes”, and serves as a model for detecting antiproliferative agents in the treatment of psoriasis (Nikoloff, et al., 1988). Human Epidermal Keratinocytes (passages 3-6), obtained from normal face-lift surgery, were cultivated in serum-free KGM®-2 BulletKit® (Clonetics, USA) medium with low calcium for accelerated proliferation of the keratinocytes. The viability and/or proliferation of HaCat cells and Cultured Human Epidermal Keratinocytes, following treatment with various concentrations of calcipotriol, nicotinamide (NA) or a combination thereof was determined by the MTT assay, according manufacturer in 96-well microtiter plates."}, "keratin 10 (K10)": {"system": "keratin 10 (K10)", "assay": "Indirect immunofluorescence, keratin 10 expression", "assay_type": "cell-based, human", "conditions": "72 hours", "description": "as §1\nas §2, with “The level of keratin 10 and involucrin expression was estimated by counting the positive cells relative to the total cell number.” left out"}, "[6]": {"system": "benign and malignant epidermal cells", "assay": "Differentiation markers in benign and malignant epidermal cells", "assay_type": "cell-based", "description": "as §3, §4, §1"}, "HaCat keratinocytes": {"system": "HaCat keratinocytes", "assay": "Long-term NA treatment of HaCat keratinocytes, oxidative stress", "assay_type": "cell-based, human", "conditions": "long-term treatment with NA", "source_text": "Other long-term cultures of cells with other agents are similarly obtained by cultivating HaCat cells, for a prolonged period of time, in medium supplemented with combinations of NA, vitamin D and derivatives thereof and vitamin A."}, "HaCat cells [7]": {"system": "HaCat cells", "assay": "Apoptosis and necrosis by fluorescence microscopy", "assay_type": "cell-based, human", "description": "Estimation of apoptosis and necrosis was analyzed using fluorescence microscopy as previously described (Harel et al, 2002). Briefly, HaCat cells were cultured on glass slides and exposed to various concentration of NA (5, 10, 20 and 50 mM). After 72 h the cells were stained with the DNA binding dyes Hoechst 33342 and propidium iodide. Viable cells were identified by intact nuclei and their blue fluorescence, necrotic cells by intact nuclei and red fluorescence, and cells in early or late phase of apoptosis, by fragmented nuclei and blue or red fluorescence. At least one thousand cells were counted for each treatment."}, "[8]": {"assay": "Skin permeation, Franz diffusion cell", "assay_type": "in vitro ADME, porcine", "conditions": "formulations CP and CPNA, 12 hours; QL 1.3 ng/mL", "description": "Three formulations were prepared. The first comprised Nicotinamide (NA, 2.1 mg/g), the second Calcipotriol (CP, 50 μg/g) and the third, a combination of Calcipotriol (50 μg/g) and Nicotinamide (2.1 mg/g)(CPNA).\nThe Franz cell assembly and porcine ear skin are used for measuring permeation of drugs through the skin in vitro from various systems and dosage forms (Dick et al. 1992; Simon, et al. 2000; Touitou et al. 1998; Chien 1992). The experiments were carried out in vitro using the Franz diffusion cell assembly and full-thickness skin from porcine ear. The diffusion cells are made from an inert material and the assembly allows for good receiver-fluid mixture and temperature control.\nPorcine ear skin was excised from the outer part of the ear and separated from the underlying cartilage. The skin was stored frozen at −20° C. until use, always less than one week. […] A quantity of 100 mg test formulation was placed on 1.77 cm^2 skin in the donor compartment. […]\nThe experiments were run non-occluded for 12 hours. […] The samples were analyzed for Nicotinamide and Calcipotriol concentrations by HPLC as further described. […]\nHPLC assays: The HPLC assays of nicotinamide and calcipotriol were carried as follows: Nicotinamide was analyzed in a Waters Alliance 2795 LC and Quattro Micro™ HPL chromotograph LC-MS system with Hypersil BDS C18, 3 μm, 150×2.1 mm (CN 28103-152130, batch #4796) column. […]"}}, "data": [{"compound": "NC(=O)c1cccnc1", "note": "[NA, Nicotinamide]", "values": [{"measurement": "increase of involucrin expression vs control", "setting": "involucrin; 5 mM NA", "value": "about 2 times"}, {"measurement": "level of involucrin expression (positive cells)", "setting": "involucrin; 5 mM NA, control 6.0±1.22%", "value": "11.2±1.68", "unit": "%"}, {"measurement": "frequency of involucrin positive cells", "setting": "involucrin; 10 mM NA", "value": "11.0±1.13", "unit": "%"}, {"measurement": "frequency of involucrin positive cells", "setting": "involucrin; 20 mM NA", "value": "15.1±3.93", "unit": "%"}, {"measurement": "growth curve", "setting": "HaCat cells [1]; 48-168 hours", "value": "growth retardation"}, {"measurement": "percentage of mitotic cells, times lower compared to untreated", "setting": "HaCat cells [1]; 72 h", "value": "about 2.5 times"}, {"measurement": "rate of HaCat cell proliferation", "setting": "HaCat cells [2]; 0.5-5 mM NA, 72 h", "value": "did not change the rate of HaCat cell proliferation"}, {"measurement": "Proliferation of HaCat keratinocytes", "setting": "HaCat cells [2]; NA in pharmacological concentrations, dose dependent", "value": "significantly inhibited"}, {"measurement": "Proliferation of KM12", "setting": "KM12", "value": "significantly inhibited"}, {"measurement": "Proliferation of A431", "setting": "A431", "value": "significantly inhibited"}, {"measurement": "PARP expression (Western blot)", "setting": "PARP; 10 mM or 20 mM NA", "value": "express a basal level of undegraded 116 kDa PARP full protein"}, {"measurement": "PARP expression (Western blot)", "setting": "PARP; 50 mM NA, 85 kDa cleavage fragment appears", "value": "induced degradation of PARP"}, {"measurement": "apoptotic death in A431 cells", "setting": "A431 cells", "value": "does not induce apoptotic death"}, {"measurement": "frequency of cells in G0-G1, S and G2-M phases", "setting": "HaCat cells [3]", "value": "reduction of the cell number in S and G2-M-phases"}, {"measurement": "frequency of basal and cornified envelope cells", "setting": "HaCat cells [4]; 5 mM or 10 mM NA", "value": "no statistically significant effect"}, {"measurement": "cornified envelope cell formation", "setting": "HaCat cells [4]; 15 mM NA", "value": "increased"}, {"measurement": "level of basal cells", "setting": "HaCat cells [4]; 15 mM NA, untreated 58.6±10.24%", "value": "25.6±5.76", "unit": "%"}, {"measurement": "frequency of basal cells, of total cell population", "setting": "HaCat cells [4]; 20 mM NA", "value": "about 15%"}, {"measurement": "frequency of envelope cornified cells, of total cell population", "setting": "HaCat cells [4]; 20 mM NA, untreated 4.4±2.78%", "value": "about 15%"}, {"measurement": "Proliferation of human primary keratinocytes", "setting": "[5]", "value": "significantly inhibited"}, {"measurement": "K10 expression compared to control cells", "setting": "keratin 10 (K10); 5 mM to 10 mM NA", "value": "no effect"}, {"measurement": "stimulation of K10 expression", "setting": "keratin 10 (K10); 20 mM NA", "value": 3, "unit": "fold"}, {"measurement": "differentiation processes: K10, Involucrin, enveloped cornified cell formation markers", "setting": "[6]", "value": "promotes the differentiation processes"}, {"measurement": "anti-oxidative enzymes (glutathione peroxidase and catalase)", "setting": "HaCat keratinocytes", "value": "high levels of anti-oxidative enzymes"}, {"measurement": "protection to oxidative stress (hydrogen peroxide)", "setting": "HaCat keratinocytes", "value": "high level of protection to oxidative stress"}, {"measurement": "apoptotic death in HaCat cells (summary statement)", "setting": "HaCat cells [7]", "value": "does not induce apoptotic death"}, {"measurement": "apoptogenic effect", "setting": "HaCat cells [7]; 20 mM and 50 mM NA, 72 h", "value": "significant apoptogenic effect"}, {"measurement": "cells in stage of early apoptosis", "setting": "HaCat cells [7]; 50 mM NA", "value": 9, "unit": "%"}, {"measurement": "effected cells with signs of late apoptosis", "setting": "HaCat cells [7]; 50 mM NA", "value": "about 91%"}, {"measurement": "necrotic cell death", "setting": "HaCat cells [7]; all tested NA concentrations (5-50 mM)", "value": "no tested concentration of NA induced necrotic cell death"}]}, {"compound": "C=C1/C(=C\\C=C2/CCC[C@]3(C)[C@@H]([C@H](C)/C=C/[C@@H](O)C4CC4)CC[C@@H]23)C[C@@H](O)C[C@@H]1O", "note": "[calcipotriol, Calcipotriol]", "values": [{"measurement": "calcipotriol in the receiver compartment", "setting": "[8]", "value": "No calcipotriol was detected"}]}]}
